According to paper PMC12765074, “Mechanistic insights into enterocin C targeting the undecaprenyl phosphate recycling protein BacA” (The Journal of Biological Chemistry, 2025):
“Also recorded” adds a separate entry of the source.

Experiments:
L. lactis IL1403 = experiment: spot-on-lawn antibacterial assay, L. lactis; type: cell-based, Lactococcus lactis; conditions: 6 μl droplets, L. lactis IL1403, M17G agar, overnight
[1] = system: E. faecalis (V583-derivative strain, WT); type: cell-based, Enterococcus faecalis; conditions: 6 μl droplets on a lawn of E. faecalis, BHI 0.75% agar, overnight; representative of three independent experiments
BacAef [2] = biological target: T1, BacAef (Enterococcus faecalis, UniProt A0ACD6TE02); type: binding
Experimental: Thermal stability of BacA protein in different mixtures of peptides was performed by DSC on a MicroCal model VP-DSC (Malvern Panalytical, Malvern, UK). BacA (33 μM) was mixed with different mixtures of peptides at twice the BacA concentration (i.e. 66 μM). Each measurement was preceded by a baseline scan with the standard buffer. Scans were performed at 1 K/min (60 °C/h) temperature ramp between 30 °C and 100 °C. The heat capacity of the buffer was subtracted from that of the protein sample before analysis. The thermodynamic parameters were determined by fitting the data to the following equation: ΔCp(T)=Kd(T)ΔHcalΔHvH/[1+Kd(T)]^2RT^2 where Kd is the equilibrium constant for a two-state process, ΔHvH the enthalpy calculated based on a two-state process and ΔHcal the measured enthalpy.

L. lactis strains = conditions: ref [6], [7], [8], cited from earlier work
BacAef [3] = biological target: T1, BacAef; type: biochemical
BacAef [4] = biological target: T1, BacAef; experiment: ITC, BacAef; type: binding; conditions: 20 °C; for -TΔS / ΔG / ΔH: into [BacAef] 33 μM
Experimental: (§1) ITC experiments were performed with an ITC200 isothermal titration calorimeter from MicroCal (Malvern Panalytical, Malvern, UK). The experiments were carried out at 20 °C. The protein concentration in the microcalorimeter cell (0.2 ml) was 33 μM. Nineteen 2-μl injections of peptides at 400 μM were performed at intervals of 240 s while stirring at 500 rpm. To limit buffer mismatching effect between the cell and the syringe, and the heat-of-dilution effect for having glycerol in the protein solution, the latter were extensively dialyzed, prior to the ITC measurement, in a buffer containing 20 mM Tris-HCl pH 7.4, 200 mM NaCl, 0.1% DDM, to remove glycerol. Then, the dialysis buffer was used to dilute the EntC peptides to further limit buffer mismatching. The experimental data were fitted to theoretical titration curves with the software supplied by MicroCal (ORIGIN). This software uses the relationship between the heat generated by each injection and ΔH (enthalpy change in kcal/mol), Ka (the association binding constant in M^−1), n (the number of binding sites), total protein concentration and free and total ligand concentrations.

[5] = biological target: Fluorescein-labelled EntC1 (Enterococcus faecalis C901); experiment: flow-induced dispersion analysis (FIDA); as the titration without EntC2, but in the presence of 200 nM EntC2 (twice the concentration of Fluo-EntC1); 25 °C; 20 mM Tris-HCl pH 7.4, 200 mM NaCl, 0.1% DDM; 1:1 binding model
[6] = biological target: Fluorescein-labelled EntC1 (Enterococcus faecalis C901); experiment: flow-induced dispersion analysis (FIDA)
[7] = biological target: N-terminal His6-tagged BacA from E. faecalis (BacAef) (Enterococcus faecalis); experiment: cross-linking; DSS (100- or 1000-fold excess), peptides and BacA at equimolar 17 μM in buffer D (20 mM HEPES pH 7.5, 0.2 M NaCl, 10% glycerol, 0.1% DDM), 30 min at 4 °C, quenched with 50 mM Tris-HCl; SDS-PAGE and anti-His blot of BacA
[8] = biological target: N-terminal His6-tagged BacA from E. faecalis (BacAef) (Enterococcus faecalis); experiment: ITC; peptides (400 μM) in the syringe titrated into the protein, or the protein premixed with one peptide, (33 μM) in the cell; 20 °C; 20 mM Tris-HCl pH 7.4, 200 mM NaCl, 0.1% DDM; single binding site model
[9] = biological target: N-terminal His6-tagged BacA from E. faecalis (BacAef) (Enterococcus faecalis)
[10] = biological target: BacAef + LcnGα mixture (Enterococcus faecalis | Lactococcus lactis); experiment: ITC; peptides (400 μM) in the syringe titrated into the protein, or the protein premixed with one peptide, (33 μM) in the cell; 20 °C; 20 mM Tris-HCl pH 7.4, 200 mM NaCl, 0.1% DDM; single binding site model
[11] = biological target: N-terminal His6-tagged BacA from E. faecalis (BacAef) (Enterococcus faecalis); remark: listed apart in the source
[12] = biological target: N-terminal His6-tagged BacA from E. faecalis (BacAef) (Enterococcus faecalis); remark: listed apart in the source
[13] = biological target: N-terminal His6-tagged BacA from E. faecalis (BacAef) (Enterococcus faecalis); experiment: ITC; EntC1 (400 μM) in the syringe titrated into a mixture containing BacAef and EntC2 (33 μM) in the cell; 20 °C; 20 mM Tris-HCl pH 7.4, 200 mM NaCl, 0.1% DDM
BacAef/LcnGα = BacAef/LcnGα (Enterococcus faecalis, UniProt A0ACD6TE02); experiment: ITC, BacAef/LcnGα mixture; type: binding; conditions: 20 °C
Experimental: as §1

BacAef [14] = biological target: T1, BacAef; experiment: DSS crosslinking; type: binding; conditions: BacAef and peptide 17 μM each, DSS 100- or 1000-fold excess, 30 min, 4 °C
Experimental: Crosslinking experiments were performed using the amine-reactive, membrane-permeable, and non-cleavable crosslinker disuccinimidyl suberate (DSS) purchased from Sigma. EntC peptides and BacA protein were mixed at equimolar concentrations (17 μM) in buffer D in the presence of an excess of DSS crosslinker (1000-fold or 100-fold) in a final reaction volume of 20 μl. The reaction was incubated for 30 min at 4°C, and any unreacted DSS was quenched with 50 mM Tris-HCl. After separation on a 12% acrylamide gel, proteins were electrotransferred onto polyvinylidene difluoride (PVDF) membrane, and BacA was detected using peroxidase-coupled anti-His tag antibody (Penta-His HRP conjugate from Qiagen, RRID: AB_3699318) by chemiluminescence detection (Western Lightning Plus-ECL, PerkinElmer) using the ChemiDoc MP system (Bio-Rad).

BacAef/EntC1 = BacAef/EntC1 (Enterococcus faecalis, UniProt A0ACD6TE02+Q9L9U6); experiment: ITC, BacAef/EntC1 mixture; type: binding
Experimental: as §1

BacAef [15] = biological target: T1, BacAef; experiment: UppS-coupled C55-PP phosphatase assay in liposomes, BacAef; type: biochemical; conditions: liposomes
Experimental: The reconstitution of BacA and PgpB in liposomes was achieved through adapted protocols previously described ([48]). Liposomes were prepared by rehydrating a lipid film of DOPC: DOPG: DOPE (3 mg: 0.75 mg: 1.25 mg) after 4 h of desiccation by adding 1 ml of buffer (20 mM HEPES, pH 7.5, 50 mM NaCl, 15% glycerol). […] The lipid suspension underwent 10 freeze-thaw cycles in liquid nitrogen and was extruded through a 100 nm polycarbonate membrane (Millipore). Protein reconstitution was performed by destabilizing the liposomes with 5.5 mM Triton X-100 for 15 min. The protein was added at a final concentration of 15 μg/ml and the mixture was incubated at 4 °C for 15 min.
The liposomes were used to measure the C55-PP phosphatase activity of BacA in a membrane environment as follows. For each kinetic assay, 5 μl of a reaction mixture containing 20 μM C15-PP, 20 μM [^14C]C5-PP, 180 μM C5-PP in 20 mM HEPES, pH 7.5, 50 mM NaCl, and 15% glycerol were mixed with 5 μl of protein-free liposomes (as a control) or BacA-containing liposomes. The mixture was then supplemented with UppS at a final concentration of 0.2 mg/ml to initiate the enzymatic synthesis of C55-PP. The EntC peptides were added at various concentrations from a water solution. […] Substrates and products were separated and quantified by thin-layer chromatography as previously described for C55-PP phosphatase assay in detergent.

[16] = ITC, peptides 400 μM into [BacAef] 33 μM, 20 mM Tris-HCl pH 7.4, 200 mM NaCl, 0.1% DDM, at least triplicate
[17] = ITC, 20 °C, into [BacAef/EntC1]

Lactococcin G [LcnG, reference compound]
antibacterial activity (spot-on-lawn), L. lactis (L. lactis IL1403): sensitivity to both bacteriocins
antibacterial activity (spot-on-lawn), E. faecalis [1]: E. faecalis was only susceptible to EntC; also recorded: inactive against E. faecalis
difference in Tm between EntC and LcnG complexes with BacAef (BacAef [2]; LcnG versus EntC): 6.8 °C
difference in ΔH between EntC and LcnG complexes with BacAef (BacAef [2]; LcnG versus EntC): 7.8 kcal/mol
membrane permeabilization (L. lactis strains; 1:1 ratio of LcnGα and LcnGβ): membrane permeabilization to monovalent cations
antibacterial activity against L. lactis strains (L. lactis strains): antibacterial activity at nanomolar concentrations
IC50 (BacAef [3]; DDM micelles, 20 mM Tris-HCl pH 7.4, 400 μM CaCl2, 150 mM NaCl, 0.1% DDM, 50 μM [14C]C55-PP, 10 min, 37 °C, TLC, EntC vs EntC1 p-value = 0.0007, read-out: IC50, BacAef C55-PP phosphatase activity): 800 nM
-TΔS (BacAef [4]; ITC): 11.3 kcal/mol
ΔG (BacAef [4]; ITC): -9.1 kcal/mol
ΔH (BacAef [4]; ITC): -20.4 kcal/mol
Kd (BacAef [4]; [16]): 165 ± 19 nM
n (BacAef [4]; ITC, peptides 400 μM into [BacAef] 33 μM, pH 7.4, 0.1% DDM, at least triplicate): 0.62 ± 0.01

N-terminal His6-tagged BacA from E. faecalis (BacAef) (enzyme)
Kd [5]: 86 nM
Kd [6]: 96 nM
stoichiometry N [7]: 2

Lactococcin G (LcnGα and LcnGβ together) (complex)
Kd [8]: 165 nM
dH [8]: -20.4 kcal/mol
stoichiometry N [8]: 0.62
IC50 of inhibition of the C55-PP phosphatase activity of BacAef in vitro [9]: 800 nM

Enterocin C peptide EntC2 (mature, synthetic)
dH [10]: -19.5 kcal/mol
stoichiometry N [10]: 0.77

Enterocin C peptide EntC1 (mature, synthetic)
Kd [8]: 306 nM
dH [8]: -5.4 kcal/mol
stoichiometry N [8]: 0.6
stoichiometry N [7]: 1
DSC: Tm of BacAef (33 μM) with the peptide at 66 μM (66.3°C without peptide) [11]: 73 °C
DSC: enthalpy of denaturation ΔH of BacAef (33 μM) with the peptide at 66 μM (26.7 kcal/mol without peptide) [11]: 45.3 kcal/mol
IC50 of inhibition of the C55-PP phosphatase activity of BacAef in DDM micelles [12]: 800 nM
Kd [13]: 480 nM
dH [13]: -27.6 kcal/mol
stoichiometry N [13]: 0.69

EntC1-LcnGβ chimera bacteriocin (EntC1 and LcnGβ together) (complex)
Kd [8]: 307 nM
dH [8]: -19.4 kcal/mol
stoichiometry N [8]: 0.79

[Ca+2].[Cl-].[Cl-] [CaCl2]
restoration of BacAef activity following EDTA treatment (BacAef [3]; after 500 μM EDTA, pH 7.5, 0.1% DDM): restored

O=C(O)CN(CCN(CC(=O)O)CC(=O)O)CC(=O)O [EDTA]
effect on BacAef C55-PP phosphatase activity (BacAef [3]): inhibited its activity

CC[C@H](C)[C@H](NC(=O)CNC(=O)[C@H](CCCCN)NC(=O)[C@H](C)NC(=O)[C@H](CC(C)C)NC(=O)CNC(=O)[C@H](C)NC(=O)[C@@H](NC(=O)[C@H](Cc1ccccc1)NC(=O)[C@H](CC(=O)O)NC(=O)[C@H](Cc1ccc(O)cc1)NC(=O)[C@H](C)NC(=O)[C@@H]1CCCN1C(=O)[C@H](CCC(N)=O)NC(=O)[C@H](CC(C)C)NC(=O)[C@H](Cc1c[nH]c2ccccc12)NC(=O)[C@@H]1CCCN1C(=O)[C@H](CC(C)C)NC(=O)[C@H](Cc1c[nH]c2ccccc12)NC(=O)[C@H](CCCCN)NC(=O)CNC(=O)[C@@H]1CCCN1C(=O)CN)C(C)C)C(=O)NCC(=O)N[C@@H](CCCCN)C(=O)N[C@@H](CCC(=O)O)C(=O)NCC(=O)N[C@@H](CC(N)=O)C(=O)N[C@@H](CCCCN)C(=O)N[C@@H](CC(N)=O)C(=O)N[C@@H](CCCCN)C(=O)N[C@@H](Cc1c[nH]c2ccccc12)C(=O)N[C@@H](CCCCN)C(=O)N[C@@H](CC(N)=O)C(=O)N[C@H](C(=O)O)C(C)C (single isomer, unassigned) [EntC2]
n (BacAef/LcnGα; 400 μM into [BacAef/LcnGα] 33 μM): 0.77 ± 0.01
-TΔS (BacAef/LcnGα; into [BacAef/LcnGα]): 10.5 kcal/mol
ΔG (BacAef/LcnGα; into [BacAef/LcnGα]): -9.0 kcal/mol
ΔH (BacAef/LcnGα; into [BacAef/LcnGα]): -19.5 kcal/mol
antibacterial activity (spot-on-lawn), E. faecalis [1]: neither peptide exhibited antibacterial activity when applied individually
DSC signal change of BacAef (BacAef [2]; EntC2 at twice the concentration of BacAef): did not change the DSC signal
crosslinked complex band with BacAef (SDS-PAGE, western blot) (BacAef [14]): a very faint band
inhibition of BacAef C55-PP phosphatase activity (BacAef [3]; DDM micelles, EntC2 up to 50 μM, pH 7.4, 37 °C, 10 min): no inhibition
-TΔS (BacAef [4]; ITC): No binding
ΔG (BacAef [4]; ITC): No binding
ΔH (BacAef [4]; ITC): No binding
KD (BacAef [4]; [16]): No binding
binding to BacAef (ITC, words) (BacAef [4]; titration on BacAef alone): No binding
affinity of second binding event relative to EntC1 binding (fold) (BacAef/EntC1; EntC2 into BacAef/EntC1 versus EntC1 into BacAef): about 10 -fold
n (BacAef/EntC1; ITC, 20 °C, 400 μM into [BacAef/EntC1] 33 μM): 0.95 ± 0.01
-TΔS (BacAef/EntC1; [17]): 6.5 kcal/mol
ΔG (BacAef/EntC1; [17]): -10.3 kcal/mol
ΔH (BacAef/EntC1; [17]): -16.8 kcal/mol
effect on BacAef activity in liposomes (BacAef [15]): no effect
